Data published in patent publication US8586530B2, “Modulation of inhibition of ferrochelatase by N-methyl protoporphyrin” (University of South Florida, priority 2006, dated 2013).

Target: T1, wild-type, murine ferrochelatase (Mus musculus, UniProt P22315)
T1 construct: In wild-type, murine, mature ferrochelatase, five tryptophan residues; penta-histidine tag (N); made in house; host or cells: E. coli BL21(DE3)
T1 sequence (P22315 54-422): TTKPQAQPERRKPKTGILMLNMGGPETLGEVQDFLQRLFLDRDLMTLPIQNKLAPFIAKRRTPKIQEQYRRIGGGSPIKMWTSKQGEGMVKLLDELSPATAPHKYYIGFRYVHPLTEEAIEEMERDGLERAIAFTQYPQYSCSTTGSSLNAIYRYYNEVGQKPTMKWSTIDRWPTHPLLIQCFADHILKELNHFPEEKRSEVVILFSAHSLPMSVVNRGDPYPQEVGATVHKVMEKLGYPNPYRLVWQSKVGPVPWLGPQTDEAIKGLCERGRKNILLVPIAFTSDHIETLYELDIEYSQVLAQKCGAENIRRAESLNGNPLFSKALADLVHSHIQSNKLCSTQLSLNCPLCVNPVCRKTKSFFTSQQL
Assay: Fluorescence titration of NMPP binding (quenching of intrinsic protein fluorescence)
Settings: 10 mM Tris-acetate pH 8, 0.05% Tween-80, read-out: dissociation constant (Kd) of NMPP
Experimental: Aliquots of NMPP were added to a solution of enzyme in 10 mM Tris-acetate, pH 8 containing 0.05% Tween-80 and incubated on ice for 1 hr. The intrinsic protein fluorescence was monitored at 331 nm (λex=283 nm). The Kd value for NMPP was determined by fitting the data to Equation 3. The enzymes used in each set were: A. wild-type ferrochelatase (40 nM); B. P255R (250 nM); C. P255G (120 nM).
The equilibrium constant for NMPP binding to ferrochelatase could be determined from the change in intrinsic protein fluorescence upon ligand addition. […]
Fluorescence Titration Measurements. Equilibrium fluorescence measurements were made using a Shimadzu RF-5301PC fluorimeter at 23° C. with excitation and emission wavelengths at 283 nm and 331 nm, respectively. The decrease in protein fluorescence, due to NMPP binding, was monitored. […] In a typical titration experiment, aliquots of the NMPP stock were added to the protein solution and, upon incubation on ice for 1 h, the quenching in fluorescence was monitored as described above. […] The observed fluorescence intensity was plotted against NMPP concentration and the dissociation constant of NMPP for ferrochelatase was determined using the least-squares fit of each data set to equation 3 by nonlinear regression: […]

Substance: N-methyl protoporphyrin [NMPP]
- Kd: 9 ± 5 nM
